Assay results reported in US6495699B2, “Metalloproteinase inhibitors, pharmaceutical compositions containing them, and their use” (Agouron Pharmaceuticals Inc., priority 1996, dated 2002).
Counter-ions that a name gives are not always drawn.

How the values were obtained:
[1] = target: T1, catalytic domain of human stromelysin (Hsln) (Homo sapiens, UniProt P08254); test: Fluorometric MCA-peptide hydrolysis assay, stromelysin (Hsln); assay type: biochemical; conditions: apparent Ki; 10 μM MCA peptide substrate, 37° C., pH 7.5; read-out: Hsln (Ki,app)
T1 construct: The catalytic domain of human stromelysin (Hsln) was obtained by expression and purification of a C-terminally truncated prostromelysin-1; made in house; host or cells: E. coli BL21
T1 sequence (P08254 100-272 limits assumed): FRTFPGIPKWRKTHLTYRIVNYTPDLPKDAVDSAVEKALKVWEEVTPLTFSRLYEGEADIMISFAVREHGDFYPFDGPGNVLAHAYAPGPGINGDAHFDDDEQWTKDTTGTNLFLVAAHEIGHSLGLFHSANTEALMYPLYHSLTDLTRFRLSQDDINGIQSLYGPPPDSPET
Procedure: The catalytic domain of human stromelysin (Hsln) was obtained by expression and purification of a C-terminally truncated prostromelysin-1 from E. coli host BL21 (see Marcy et al. Biochem., 1991, 30, 6476). The subsequent activation of the mature form (Hsln) was completed with 2 mM APMA for 1 hour at 37° C., followed by separation using a sizing column.
(§1) Assays were performed in assay buffer (50 mM Tricine pH 7.5, 200 mM sodium chloride, 10 mM calcium chloride, 0.5 mM zinc acetate containing 2% dimethyl sulfoxide (DMSO)) once the substrate and inhibitor were diluted into it. Stock solutions of inhibitors were prepared in 100% DMSO. Stock solutions of the substrate were prepared in 100% DMSO at a concentration of 6 mM.
(§2) The assay method was based on the hydrolysis of MCA-Pro-Leu-Gly-Leu-DPA-Ala-Arg-NH2 (American Peptide Co.) at 37° C. (see Knight, C. G. et al., FEBS, 1992, 296, 263-266). The fluorescence changes were monitored with a Perkin-Elmer LS-50B fluorimeter using an excitation wavelength of 328 nm and an emission wavelength of 393 nm. The substrate concentration used in the assays was 10 μM. The inhibitor was diluted into the assays from a solution in 100% DMSO, and controls substituted an equal volume of DMSO so that the final DMSO concentration from inhibitor and substrate dilution in all assays was 2%. […] Proper determination of steady-state rates of substrate cleavage required assay lengths of 60 minutes to allow for complete equilibration of the enzyme-inhibitor complex.
(§3) The Km for the MCA peptide substrate with the matrix metalloproteinases is quite high and exceeds its solubility under assay conditions. Consequently, the apparent Ki (Ki,app) was determined to describe the strength of inhibition. However, in this case, Ki,app would be essentially equal to Ki since [S]<<Km. For the determination of Ki,app, the concentration of the inhibitor was varied at a constant and low concentration of substrate and the steady-state rates of fluorescence change determined. In most cases absorptive quench due to the presence of ligand was not observed. For slow-binding inhibitors, onset of inhibition curves were collected for at least 45 minutes so that equilibrium was established. Steady-state rates of fluorescence change were obtained by fitting a curve to an equation for a single exponential decay containing a linear phase. The fitted value of the linear phase was taken as the steady-state rate. The steady-state rates were fitted to the Michaelis equation describing competitive inhibition by non-linear methods. Data resulting from tight-binding inhibition was analyzed, and Ki,app determined by fitting the data to the tight-binding equation of Morrison (Biochem. Biophys. Acta, vol. 185, pp. 269-286 (1969)) by non-linear methods.

[2] = target: T2, human progelatinase A (GelA), catalytic and fibronectin-like portion (Homo sapiens, UniProt P08253); test: Fluorometric MCA-peptide hydrolysis assay, gelatinase A (GelA); assay type: biochemical; conditions: apparent Ki; 10 μM MCA peptide substrate, 37° C., pH 7.5
T2 construct: The catalytic and fibronectin-like portion of human progelatinase A (GelA) was expressed as a fusion protein with ubiquitin; ubiquitin; made in house; host or cells: E. coli
T2 sequence (P08253 110-465 limits assumed): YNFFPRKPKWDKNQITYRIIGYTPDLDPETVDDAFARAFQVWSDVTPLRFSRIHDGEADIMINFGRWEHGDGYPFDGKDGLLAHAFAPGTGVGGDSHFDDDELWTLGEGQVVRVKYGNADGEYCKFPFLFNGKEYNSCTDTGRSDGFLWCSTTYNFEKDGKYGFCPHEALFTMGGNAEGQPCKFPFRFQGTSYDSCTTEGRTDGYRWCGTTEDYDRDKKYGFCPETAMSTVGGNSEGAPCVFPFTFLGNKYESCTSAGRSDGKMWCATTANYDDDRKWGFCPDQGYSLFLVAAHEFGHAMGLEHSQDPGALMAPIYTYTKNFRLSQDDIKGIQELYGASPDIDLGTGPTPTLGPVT
Procedure: The catalytic and fibronectin-like portion of human progelatinase A (GelA) was expressed as a fusion protein with ubiquitin in E. Coli. Assays were carried out on autocatalytically activated material.
as §1, §2, §3

Human matrilysin (Matr) = target: T3, Human matrilysin (Matr) (Homo sapiens, UniProt P09237); test: Fluorometric MCA-peptide hydrolysis assay, matrilysin (Matr); assay type: biochemical; conditions: apparent Ki; 10 μM MCA peptide substrate, 37° C., pH 7.5; read-out: Matr (Ki,app)
T3 construct: the catalytic domain was liberated by treatment with 2 mM APMA at 37° C. for 2 hours; ubiquitin (cleaved yes); made in house; host or cells: E. coli
T3 sequence (P09237 95-267): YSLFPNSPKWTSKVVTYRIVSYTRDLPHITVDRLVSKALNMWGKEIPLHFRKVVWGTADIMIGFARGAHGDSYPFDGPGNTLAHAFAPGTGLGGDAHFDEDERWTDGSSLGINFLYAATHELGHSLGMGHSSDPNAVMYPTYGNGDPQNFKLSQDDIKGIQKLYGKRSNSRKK
Procedure: Human matrilysin (Matr) was expressed in E. coli as a fusion protein with ubiquitin. After purification of the matrilysin/ubiquitin fusion from inclusion bodies, the catalytic domain was liberated by treatment with 2 mM APMA at 37° C. for 2 hours. Final purification was complete using copper chelate chromatography.
as §1, §2, §3

[3] = target: T4, human collagenase-3 (Coll3) (Homo sapiens, UniProt P45452); test: Fluorometric MCA-peptide hydrolysis assay, collagenase-3 (Coll3); assay type: biochemical; conditions: apparent Ki; 10 μM MCA peptide substrate, 37° C., pH 7.5; read-out: Coll3 (Ki,app)
T4 construct: the catalytic domain was liberated by treatment with 2 mM APMA at room temperature overnight; ubiquitin (N, cleaved yes); made in house; host or cells: E. coli
Procedure: The propeptide and catalytic domain of human collagenase-3 (Coll3) was expressed in E. coli as an N-terminal fusion protein with ubiquitin. After purification of the fusion from inclusion bodies, the catalytic domain was liberated by treatment with 2 mM APMA at room temperature overnight. Final purification was completed using copper chelate chromatography.
as §1, §2
as §3, with “In most cases absorptive quench due to the presence of ligand was not observed.” left out

| Compound | Ki [1] [nM] | GelA (Ki,app) [2] [nM] | melting point | Ki (Human matrilysin (Matr)) [nM] | Ki [3] [nM] |
| --- | --- | --- | --- | --- | --- |
| CC(C)(C)[C@@H](CO)NC(=O)[C@@H](CC(=O)O)n1ccc(-c2ccc(-c3ccc(C(N)=O)cc3)cc2)c1 [Example 4(c), 3(R)-[3-(4′-Carbamoylbiphenyl-4-yl)-1H-pyrrol-1-yl]-N-(1(S)-hydroxymethyl-2,2-dimethyl-propyl)succinamic Acid] | 64 | 7.2 | 192 to 194 °C | 2530 | – |
| CC(C)(C)[C@H](NC(=O)C(CC(=O)O)c1ccsc1)C(=O)Nc1ccncc1 (stereo in doubt) [Example 17(c), N-[2,2-Dimethyl-1(S)-(pyridin-4-ylcarbamoyl)-propyl]-3(R)-thien-3-yl-succinamic Acid] | 935 | 157 | 205 °C (dec.) | 156 | – |
| CCC[C@H](C(=O)O)[C@H](C(=O)N[C@H](CO)C(C)(C)C)n1ccc(-c2ccc(-c3ccc(C#N)cc3)cc2)c1 [Example 10(c), 2S-[1R-(3-(4′-Cyanobiphenyl-4-yl)-1H-pyrrol-1-yl)-1-(2,2-dimethyl-1(S)-(hydroxymethyl)propylcarbamoyl)-methyl]-pentanoic Acid] | 40 | 22 | 130 to 132 °C | 2180 | 50 |
| NC(=O)c1ccc(-c2ccc(-c3ccn([C@H](CC(=O)O)C(=O)N[C@H](CO)Cc4ccccc4)c3)cc2)cc1 [Example 4(b), N-(1-Benzyl-2-hydroxyethyl)-3(R)-[3-(4′-carbamoylbiphenyl-4-yl)-1H-pyrrol-1-yl]succinamic Acid] | 23 | 1.11 | 218 to 220 °C | 1520 | 2.13 |
| COC[C@H](Cc1ccccc1)NC(=O)[C@@H](CC(=O)O)n1ccc(-c2ccc(-c3ccccc3)cc2)c1 [Example 1(f), N-(1(S)-Benzyl-2-methoxyethyl)-3(R)-[3-(biphenyl-4-yl)-1H-pyrrol-1-yl]succinamic Acid] | 331 | 93 | 247 °C | 1000 | 542 |
| CC(C)(C)[C@@H](CO)NC(=O)C(CC(=O)O)n1cnc(-c2ccc(-c3ccccc3)cc2)c1 (mixture of isomers) [Example 18(b), 3(RS)-(3-Biphenyl-4-yl-1H-imidazol-1-yl)-N-(2,2-dimethyl-1(S)-hydroxymethylpropyl)succinamic Acid] | 3000 | – | 145 to 150 °C | > 100000 | – |
| CCCc1ccc(-c2ccn([C@H](CC(=O)O)C(=O)N[C@H](C(=O)NC)C(C)(C)C)c2)cc1 [Example 1(j), N-[2,2-Dimethyl-1(S)-(methylcarbamoyl)propyl]-3(R)-[3-(4-propylphenyl)-1H-pyrrol-1-yl]succinamic Acid] | 133 | 1.43 | 104 to 106 °C | – | 9.43 |
| CC(C)(O)C(CO)NC(=O)[C@@H](CC(=O)O)n1ccc(-c2ccc(-c3ccccc3)cc2)c1 (stereo in doubt) [Example 1(i), 3(R)-[3-(Biphenyl-4-yl)-1H-pyrrol-1-yl]-N-[2-hydroxy-1(S)-(hydroxymethyl)-2-methylpropyl]succinamic Acid] | 113 | 8 | 150 to 152 °C | – | 89.6 |
| O=C(C[C@H](C(=O)N[C@H]1Cc2cn(c3ccccc23)CCCCCCNC1=O)n1cccc1)NO [Example 8(c), N ^4Hydroxy-N^1-(9-oxo-1,8-diaza-tricyclo[10.6.1.0^13,18]nonadeca-12(19),13,15,17-tetraen-10S-yl)-3(R)-1H-(pyrrol-1-yl)succinamide] | – | – | 158 to 165 °C | – | – |
| CC(C)(C)[C@H](NC(=O)[C@@H](CC(=O)O)n1ccc(-c2ccc(-c3ccc(C#N)cc3)cc2)c1)C(=O)Nc1ccncc1 (as salt: salt) [Example 5(d), 3(R)-[3-(4′-Cyanobiphenyl-4-yl)-1H-pyrrol-1-yl]-N-[2,2-dimethyl-1(S)-(pyridin-4-ylcarbamoyl)propyl]succinamic Acid Formate Salt] | – | – | 134 to 136 °C | – | – |
| CCC[C@H](C(=O)O)[C@H](C(=O)N[C@H](CO)Cc1ccccc1)n1ccc(-c2ccc(-c3ccccc3)cc2)c1 [Example 10(a), 2S-[1R-(1(S)-Benzyl-2-hydroxyethylcarbamoyl)-(3-biphenyl-4-yl-1H-pyrrol-1-yl)-methyl]-pentanoic Acid] | – | 3.3 | 179 to 181 °C (dec.) | 617 | 50 |
| CCCC(C(=O)O)[C@H](C(=O)N[C@H](CO)Cc1ccccc1)n1ccc(-c2ccc(-c3ccc(C#N)cc3)cc2)c1 (mixture of isomers) [Example 10(b), 2(RS)-{1R-[1(S)-Benzyl-2-hydroxyethylcarbamoyl]-[3-(4′-cyano-biphenyl-4-yl)-1H-pyrrol-1-yl]-methyl}-pentanoic Acid] | 16 | 9.6 | – | 510 | 23.5 |
| CC(C)C[C@H](NC(=O)[C@@H](CC(=O)O)c1ccn(-c2ccc(-c3ccc(C#N)cc3)cc2)c1)c1ncc[nH]1 [Example 14(c), 3(S)-[1-(4′-Cyanobiphenyl-4-yl)-1H-pyrrol-3-yl]-N-[1(S)-(1H-imidazol-2-yl)-3-methylbutyl]succinamic Acid] | 17.7 | 0.044 | 206 to 210 °C (dec.) | – | – |
| O=C(O)C[C@H](C(=O)N[C@H](CO)Cc1ccccc1)n1cc(-c2ccc(-c3ccccc3)cc2)cn1 [Example 16, N-(1(S)-Benzyl-2-hydroxyethyl)-3(R)-[4-(biphenyl-4-yl)-pyrazol-1-yl]succinamic Acid] | 1500 | 81 | 154 to 159 °C | 63000 | – |
